Non-standard residues stand in square brackets, D forms with d. Residues, ends and D or L forms follow the SMILES beside them. pT = C[C@@H](OP(=O)(O)O)[C@H](N)C(=O)O; pS = N[C@@H](COP(=O)(O)O)C(=O)O

In the first test the target is T1, interactions between Talin 1 (TLN1) and integrin subunit beta (ITGB) (Homo sapiens, UniProt Q9Y490).
T1 construct: LgBit or SmBit (N-terminal of the HaloTag); made in house
Briefly: Flip-flop detection mechanism on DNA origami (LgBit/SmBit luminescence), inhibitor screening. It counts as biochemical. The note with it: inhibition of binding between TLN1 and ITBG. The source says: Two types of systems, i.e., flip-flop detection mechanism and switch detection mechanism, were constructed by using HaloTag, LgBit, SmBit, TLN1, and ITGB. Each of TLN1 (Uniprot ID: Q9Y490) and ITGB1 (Uniprot ID: P05556) was cloned from the registered genetic information. HaloTAg has three chemically modifiable locations at a ligand recognition site, C-terminus, and N-terminus. In this Example, a single-stranded DNA for attaching to DNA origami was connected to a ligand recognition site of HaloTag, a subunit of an interaction complex was connected to the C-terminus, and LgBit or SmBit was connected to the N-terminus.
The outline of the system is disclosed in Figure 23. When TLN1 and ITBG are in a bound state in this system, LgBit and SmBit are at spatially separated positions from each other, with a HaloTag interposed therebetween. In this regard, if an inhibitor is added, complex formation of TLN1 and ITBG is inhibited. As a result, a LgBit-SmBit complex can be formed, and a luminescence reaction progresses.
As a candidate drug for inhibiting the binding between TLN1 and ITBG, peptide inhibitors consisting of 13 amino acids prepared by modifying amino acids in an intracellular region of ITGB3 have been designed (Shen B. et al., A directional switch of integrin signaling and a new antithrombotic strategy. Nature 503, 131-135 (2013)). IC50 values for the peptides shown in the following table were calculated by using the flip-flop detection mechanism described in Example 11 for optimizing the sequence. In this manner, the effect of a large number of compounds on the interaction with a target protein can be readily analyzed in the system of the present disclosed.
For the compound `CSCC[C@H](NC(=O)[C@H](CCCCN)NC(=O)[C@H](CCC(=O)O)NC(=O)[C@H](CCCCN)NC(=O)[C@H](CCC(=O)O)NC(=O)[C@H](C)NC(=O)[C@@H](N)CCCCN)C(=O)N[C@@H](CC(N)=O)C(=O)N[C@@H](C)C(=O)N[C@@H](CCCCN)C(=O)N[C@@H](C)C(=O)N[C@@H](CC(=O)O)C(=O)N[C@H](C(=O)O)[C@@H](C)O` [FIYM2] (H-KAEKEKMNAKADT-OH), the Inhibitory activity result is “no inhibition”. On the same count and under the same terms, the value for `CSCC[C@H](NC(=O)[C@H](CC(N)=O)NC(=O)[C@@H](N)CCC(=O)O)C(=O)N[C@@H](CCCCN)C(=O)N[C@@H](CCC(=O)O)C(=O)N[C@@H](CCCCN)C(=O)N[C@@H](CCCCN)C(=O)N[C@@H](CC(=O)O)C(=O)N[C@@H](Cc1c[nH]c2ccccc12)C(=O)N[C@@H](C)C(=O)N[C@@H](CCCCN)C(=O)N[C@@H](Cc1ccccc1)C(=O)N[C@H](C(=O)O)[C@@H](C)O` [FIYM3] (H-ENMKEKKDWAKFT-OH) was “no inhibition”; that for `CC[C@H](C)[C@H](NC(=O)[C@@H]1CCCN1C(=O)[C@H](CC(N)=O)NC(=O)[C@H](CCC(=O)O)NC(=O)CNC(=O)[C@@H](NC(=O)[C@H](CC(=O)O)NC(=O)[C@H](Cc1c[nH]c2ccccc12)NC(=O)[C@@H](N)CCCCN)[C@@H](C)O)C(=O)N[C@@H](Cc1ccc(O)cc1)C(=O)N[C@@H](CCCCN)C(=O)O` [FIYM4] (H-KWDTGENPIYK-OH) was “no inhibition”; that for `CSCC[C@H](NC(=O)[C@H](CCCCN)NC(=O)[C@H](CCC(=O)O)NC(=O)[C@H](CCCCN)NC(=O)[C@H](CCC(=O)O)NC(=O)[C@H](Cc1ccccc1)NC(=O)[C@H](CCCCN)NC(=O)[C@H](C)NC(=O)[C@H](Cc1ccccc1)NC(=O)[C@@H](N)CCC(=O)O)C(=O)N[C@@H](CC(N)=O)C(=O)N[C@@H](C)C(=O)N[C@@H](CCCCN)C(=O)N[C@@H](Cc1c[nH]c2ccccc12)C(=O)N[C@@H](CC(=O)O)C(=O)N[C@H](C(=O)O)[C@@H](C)O` [FIYM5] (H-EFAKFEKEKMNAKWDT-OH) was “no inhibition”. Same read-out and setting: the value for `CC[C@H](C)[C@H](NC(=O)[C@@H]1CCCN1C(=O)[C@H](CC(N)=O)NC(=O)[C@H](CCC(=O)O)NC(=O)CNC(=O)[C@@H](NC(=O)[C@H](CC(=O)O)NC(=O)[C@H](Cc1c[nH]c2ccccc12)NC(=O)[C@H](CCCCN)NC(=O)[C@H](C)NC(=O)[C@H](CC(N)=O)NC(=O)[C@H](CCSC)NC(=O)[C@H](CCCCN)NC(=O)[C@H](CCC(=O)O)NC(=O)[C@H](CCCCN)NC(=O)[C@H](CCC(=O)O)NC(=O)[C@H](Cc1ccccc1)NC(=O)[C@@H](N)CCCCN)[C@@H](C)O)C(=O)N[C@@H](Cc1ccc(O)cc1)C(=O)N[C@@H](CCCCN)C(=O)O` [FIYM6] (H-KFEKEKMNAKWDTGENPIYK-OH) was “no inhibition”. On the same count and under the same terms, the value for `CC[C@H](C)[C@H](NC(=O)[C@@H]1CCCN1C(=O)[C@H](CC(N)=O)NC(=O)[C@H](CCC(=O)O)NC(=O)CNC(=O)[C@@H](NC(=O)[C@H](CC(=O)O)NC(=O)[C@H](Cc1c[nH]c2ccccc12)NC(=O)[C@H](CCCCN)NC(=O)[C@H](C)NC(=O)[C@H](CC(N)=O)NC(=O)[C@H](CCSC)NC(=O)[C@H](CCCCN)NC(=O)[C@H](CCC(=O)O)NC(=O)[C@H](CCCCN)NC(=O)[C@H](CCC(=O)O)NC(=O)[C@H](Cc1ccccc1)NC(=O)[C@H](CCCCN)NC(=O)[C@H](C)NC(=O)[C@H](Cc1ccccc1)NC(=O)[C@@H](N)CCC(=O)O)[C@@H](C)O)C(=O)N[C@@H](Cc1ccc(O)cc1)C(=O)N[C@@H](CCCCN)C(=O)O` [FIYM7] (H-EFAKFEKEKMNAKWDTGENPIYK-OH) was “no inhibition”. As to `CSCC[C@H](NC(=O)[C@H](CCCCN)NC(=O)[C@H](CCC(=O)O)NC(=O)[C@H](CCCCN)NC(=O)[C@H](CCC(=O)O)NC(=O)[C@H](Cc1ccccc1)NC(=O)[C@@H](N)CCCCN)C(=O)N[C@@H](CC(N)=O)C(=O)N[C@@H](CS)C(=O)N[C@@H](CCCCN)C(=O)N[C@@H](Cc1c[nH]c2ccccc12)C(=O)N[C@@H](CC(=O)O)C(=O)N[C@H](C(=O)O)[C@@H](C)O` [FIYM8] (H-KFEKEKMNCKWDT-OH), the Inhibitory activity result is given as “no inhibition”. Consider `CSCC[C@H](NC(=O)[C@H](CCCCN)NC(=O)[C@H](CCC(=O)O)NC(=O)[C@H](CCCCN)NC(=O)[C@H](CCC(=O)O)NC(=O)[C@H](Cc1ccccc1)NC(=O)[C@@H](N)CCCCN)C(=O)N[C@@H](CC(N)=O)C(=O)N[C@@H](C)C(=O)N[C@@H](CCCCN)C(=O)N[C@@H](Cc1c[nH]c2ccccc12)C(=O)N[C@@H](CCSC)C(=O)N[C@H](C(=O)O)[C@@H](C)O` [FIYM9] (H-KFEKEKMNAKWMT-OH), for which the Inhibitory activity result is on record as “no inhibition”. Still for that read-out and setting: the value for `CSCC[C@H](NC(=O)[C@H](Cc1c[nH]c2ccccc12)NC(=O)[C@H](CCCCN)NC(=O)[C@H](CS)NC(=O)[C@H](CC(N)=O)NC(=O)[C@H](CCSC)NC(=O)[C@H](CCCCN)NC(=O)[C@H](CCC(=O)O)NC(=O)[C@H](CCCCN)NC(=O)[C@H](CCC(=O)O)NC(=O)[C@H](Cc1ccccc1)NC(=O)[C@@H](N)CCCCN)C(=O)N[C@@H](CCCCN)C(=O)O` [FIYM11] (H-KFEKEKMNCKWMK-OH) was “no inhibition”; that for `CSCC[C@H](NC(=O)[C@H](Cc1c[nH]c2ccccc12)NC(=O)[C@H](CCCCN)NC(=O)[C@H](CS)NC(=O)[C@H](CC(N)=O)NC(=O)[C@H](CCSC)NC(=O)[C@H](CCCCN)NC(=O)[C@H](CCC(=O)O)NC(=O)[C@H](CCCCN)NC(=O)[C@H](CCC(=O)O)NC(=O)[C@H](Cc1ccccc1)NC(=O)[C@@H](N)CCCCN)C(=O)N[C@@H](CCCNC(=N)N)C(=O)O` [FIYM12] (H-KFEKEKMNCKWMR-OH) was “no inhibition”; that for `CSCC[C@H](NC(=O)[C@H](CCCCN)NC(=O)[C@H](CCC(=O)O)NC(=O)[C@H](CCCCN)NC(=O)[C@H](CCC(=O)O)NC(=O)[C@H](Cc1ccccc1)NC(=O)[C@@H](N)CCCCN)C(=O)N[C@@H](CC(N)=O)C(=O)N[C@@H](CS)C(=O)N[C@@H](CCCCN)C(=O)N[C@@H](Cc1c[nH]c2ccccc12)C(=O)N[C@@H](CCSC)C(=O)N[C@H](C(=O)O)[C@@H](C)OP(=O)(O)O` [FIYM13] (H-KFEKEKMNCKWM[pT]-OH) was “no inhibition”. On the same count and under the same terms, the value for `CSCC[C@H](NC(=O)[C@H](Cc1c[nH]c2ccccc12)NC(=O)[C@H](CCCCN)NC(=O)[C@H](CS)NC(=O)[C@H](CC(N)=O)NC(=O)[C@H](CCSC)NC(=O)[C@H](CCCCN)NC(=O)[C@H](CCC(=O)O)NC(=O)[C@H](CCCCN)NC(=O)[C@H](CCC(=O)O)NC(=O)[C@H](Cc1ccccc1)NC(=O)[C@@H](N)CCCCN)C(=O)N[C@@H](COP(=O)(O)O)C(=O)O` [FIYM14] (H-KFEKEKMNCKWM[pS]-OH) was “no inhibition”; that for `CSCC[C@H](NC(=O)[C@H](CCCCN)NC(=O)[C@H](CCC(=O)O)NC(=O)[C@H](CCCNC(=N)N)NC(=O)[C@H](CCC(=O)O)NC(=O)[C@H](Cc1ccccc1)NC(=O)[C@@H](N)CCCNC(=N)N)C(=O)N[C@@H](CC(N)=O)C(=O)N[C@@H](CS)C(=O)N[C@@H](CCCNC(=N)N)C(=O)N[C@@H](Cc1c[nH]c2ccccc12)C(=O)N[C@@H](CCSC)C(=O)N[C@H](C(=O)O)[C@@H](C)O` [FIYM16] (H-RFEREKMNCRWMT-OH) was “no inhibition”.

For `CSCC[C@H](NC(=O)[C@H](CCCNC(=N)N)NC(=O)[C@H](CCC(=O)O)NC(=O)[C@H](Cc1ccccc1)NC(=O)[C@@H](N)CCCCN)C(=O)N[C@@H](CC(N)=O)C(=O)N[C@@H](CS)C(=O)N[C@@H](CCCCN)C(=O)N[C@@H](Cc1c[nH]c2ccccc12)C(=O)N[C@@H](CCSC)C(=O)N[C@H](C(=O)O)[C@@H](C)O` [FIYM20] (H-KFERMNCKWMT-OH), the Inhibitory activity result is given as “no inhibition”.

Still in this test, the particulars now being: inhibition of binding between TLN1 and ITBG, read-out: Inhibitory activity.
With `CSCC[C@H](NC(=O)[C@H](CCCCN)NC(=O)[C@H](CCC(=O)O)NC(=O)[C@H](CCCCN)NC(=O)[C@H](CCC(=O)O)NC(=O)[C@H](Cc1ccccc1)NC(=O)[C@@H](N)CCCCN)C(=O)N[C@@H](CC(N)=O)C(=O)N[C@@H](C)C(=O)N[C@@H](CCCCN)C(=O)N[C@@H](Cc1c[nH]c2ccccc12)C(=O)N[C@@H](CC(=O)O)C(=O)N[C@H](C(=O)O)[C@@H](C)O` [FIYM1] (H-KFEKEKMNAKWDT-OH), the IC50 worked out at 709 µM. The same measure, in the same setting: the result for `CSCC[C@H](NC(=O)[C@H](CCCCN)NC(=O)[C@H](CCC(=O)O)NC(=O)[C@H](CCCCN)NC(=O)[C@H](CCC(=O)O)NC(=O)[C@H](Cc1ccccc1)NC(=O)[C@@H](N)CCCCN)C(=O)N[C@@H](CC(N)=O)C(=O)N[C@@H](CS)C(=O)N[C@@H](CCCCN)C(=O)N[C@@H](Cc1c[nH]c2ccccc12)C(=O)N[C@@H](CCSC)C(=O)N[C@H](C(=O)O)[C@@H](C)O` [FIYM10] (H-KFEKEKMNCKWMT-OH) reads 5.7 µM; that for `CSCC[C@H](NC(=O)[C@H](CCCCN)NC(=O)[C@H](CCC(=O)O)NC(=O)[C@H](CCCCN)NC(=O)[C@H](CCC(=O)O)NC(=O)[C@H](Cc1ccccc1)NC(=O)[C@H](CCCCN)NC(=O)[C@@H]1CCCN1C(C)=O)C(=O)N[C@@H](CC(N)=O)C(=O)N[C@@H](CS)C(=O)N[C@@H](CCCCN)C(=O)N[C@@H](Cc1c[nH]c2ccccc12)C(=O)N[C@@H](CCSC)C(=O)N[C@H](C(=O)O)[C@@H](C)O` [FIYM17] (Ac-PKFEKEKMNCKWMT-OH), 144 µM.
